35 molecules from patent US7928098B2, “Therapeutic and/or preventive agents for a sleep disorder” (Kyowa Hakko Kirin Co., Ltd., priority 2005, dated 2011) can be followed below.

Structures are written as SMILES.

For `O=C(Nc1nc(-c2ccco2)c(C(=O)C2CCOCC2)s1)c1ccc(C(F)(F)F)nc1` [Compound 410, N-[4-(2-Furyl)-5-(tetrahydropyran-4-ylcarbonyl)thiazol-2-yl]-2-(trifluoromethyl)pyridine-5-carboxamide], the melting point fell in the range of 217 to 222 °C.
In the case of `Cc1cncc(C(=O)Nc2nc(-c3ccco3)c(C(=O)C3CCOCC3)s2)c1` [Compound 411, N-[4-(2-Furyl)-5-(tetrahydropyran-4-ylcarbonyl)thiazol-2-yl]-5-methylpyridine-3-carboxamide] it was 239 to 243 °C; in that of `O=C(Nc1nc(-c2ccco2)c(C(=O)C2CCOCC2)s1)c1ccccn1` [Compound 412, N-[4-(2-Furyl)-5-(tetrahydropyran-4-ylcarbonyl)thiazol-2-yl]pyridine-2-carboxamide], 185 to 186 °C.
`O=C(Nc1nc(-c2ccco2)c(C(=O)C2CCOCC2)s1)c1cnccn1` [Compound 414, N-[4-(2-Furyl)-5-(tetrahydropyran-4-ylcarbonyl)thiazol-2-yl]pyrazine-2-carboxamide] displayed a melting point of 200 to 205 °C.
In the case of `Cc1cnc(C(=O)Nc2nc(-c3ccco3)c(C(=O)C3CCOCC3)s2)cn1` [Compound 415, N-[4-(2-Furyl)-5-(tetrahydropyran-4-ylcarbonyl)thiazol-2-yl]-5-methylpyrazine-2-carboxamide] it was 130 to 131 °C; in that of `Cc1ccc(C(=O)Nc2nc(-c3ccco3)c(C(=O)C3CCOCC3)s2)o1` [Compound 417, N-[4-(2-Furyl)-5-(tetrahydropyran-4-ylcarbonyl)thiazol-2-yl]-5-methylfuran-2-carboxamide], 209 to 212 °C.
In the case of `O=C(Nc1nc(-c2ccco2)c(C(=O)C2CCOCC2)s1)c1ccoc1` [Compound 421, N-[4-(2-Furyl)-5-(tetrahydropyran-4-ylcarbonyl)thiazol-2-yl]furan-3-carboxamide] it was 236 to 238 °C; in that of `O=C(Nc1nc(-c2ccco2)c(C(=O)C2CCOCC2)s1)c1cccs1` [Compound 422, N-[4-(2-Furyl)-5-(tetrahydropyran-4-ylcarbonyl)thiazol-2-yl]thiophene-2-carboxamide], 231 to 232 °C; in that of `O=C(Nc1nc(-c2ccco2)c(C(=O)C2CCOCC2)s1)c1ccsc1` [Compound 423, N-[4-(2-Furyl)-5-(tetrahydropyran-4-ylcarbonyl)thiazol-2-yl]thiophene-3-carboxamide], 227 to 229 °C.
Then `Cn1cc(C(=O)Nc2nc(-c3ccco3)c(C(=O)C3CCOCC3)s2)cn1` [Compound 424, N-[4-(2-Furyl)-5-(tetrahydropyran-4-ylcarbonyl)thiazol-2-yl]-1-methylpyrazole-4-carboxamide], with 243 to 247 °C; and `CCn1cc(C(=O)Nc2nc(-c3ccco3)c(C(=O)C3CCOCC3)s2)cn1` [Compound 425, 1-Ethyl-N-[4-(2-furyl)-5-(tetrahydropyran-4-ylcarbonyl)-thiazol-2-yl]pyrazole-4-carboxamide], with 170 to 174 °C.
Take `O=C(Nc1nc(-c2ccco2)c(C(=O)C2CCOCC2)s1)c1cnn(-c2ccccc2)c1` [Compound 426, N-[4-(2-Furyl)-5-(tetrahydropyran-4-ylcarbonyl)thiazol-2-yl]-1-phenylpyrazole-4-carboxamide]: the melting point is 217 to 220 °C.
For `O=C(c1sc(NC(=O)C2CCCO2)nc1-c1ccco1)C1CCOCC1` (centres unmarked) [Compound 428, N-[4-(2-Furyl)-5-(tetrahydropyran-4-ylcarbonyl)thiazol-2-yl]tetrahydrofuran-2-carboxamide], the melting point is 115 to 117 °C.
In the case of `O=C(Nc1nc(-c2ccco2)c(C(=O)C2CCOCC2)s1)C1CCOC1` (centres unmarked) [Compound 429, N-[4-(2-Furyl)-5-(tetrahydropyran-4-ylcarbonyl)thiazol-2-yl]tetrahydrofuran-3-carboxamide], the melting point is 164 to 166 °C.
Then `O=C(CC1CCOCC1)Nc1nc(-c2ccco2)c(C(=O)C2CCOCC2)s1` [Compound 430, N-[4-(2-Furyl)-5-(tetrahydropyran-4-ylcarbonyl)thiazol-2-yl]-2-(tetrahydropyran-4-yl)acetamide], with 206 to 209 °C; and `O=C(Cc1ccccc1)Nc1nc(-c2ccco2)c(C(=O)C2CCOCC2)s1` [Compound 431, N-[4-(2-Furyl)-5-(tetrahydropyran-4-ylcarbonyl)thiazol-2-yl]-2-phenylacetamide], with 140 to 142 °C; and `O=C(CCc1ccccc1)Nc1nc(-c2ccco2)c(C(=O)C2CCOCC2)s1` [Compound 432, N-[4-(2-Furyl)-5-(tetrahydropyran-4-ylcarbonyl)thiazol-2-yl]-3-phenylpropanamide], with 161 to 164 °C.
Then `O=C(C=Cc1ccccc1)Nc1nc(-c2ccco2)c(C(=O)C2CCOCC2)s1` [Compound 433, N-[4-(2-Furyl)-5-(tetrahydropyran-4-ylcarbonyl)thiazol-2-yl]-3-phenylacrylamide], with 253 to 256 °C; and `O=C(COc1ccccc1)Nc1nc(-c2ccco2)c(C(=O)C2CCOCC2)s1` [Compound 434, N-[4-(2-Furyl)-5-(tetrahydropyran-4-ylcarbonyl)thiazol-2-yl]-2-phenoxyacetamide], with 148 to 150 °C.
Then `COCC(=O)Nc1nc(-c2ccco2)c(C(=O)C2CCOCC2)s1` [Compound 435, N-[4-(2-Furyl)-5-(tetrahydropyran-4-ylcarbonyl)thiazol-2-yl]-2-methoxyacetamide], with 148 to 149 °C.
As to `CCOCC(=O)Nc1nc(-c2ccco2)c(C(=O)C2CCOCC2)s1` [Compound 437, 2-Ethoxy-N-[4-(2-furyl)-5-(tetrahydropyran-4-ylcarbonyl)-thiazol-2-yl]acetamide], the melting point lay in the range of 121 to 126 °C.
In the case of `CN(C)CC(=O)Nc1nc(-c2ccco2)c(C(=O)C2CCOCC2)s1` [Compound 438, 2-(Dimethylamino)-N-[4-(2-furyl)-5-(tetrahydropyran-4-ylcarbonyl)thiazol-2-yl]acetamide] it was 129 to 130 °C; in that of `COCCN(C)CC(=O)Nc1nc(-c2ccco2)c(C(=O)C2CCOCC2)s1` [Compound 439, N-[4-(2-Furyl)-5-(tetrahydropyran-4-ylcarbonyl)thiazol-2-yl]-2-[N-(2-methoxyethyl)-N-methylamino]acetamide], 103 to 105 °C.
In turn, `O=C(CN1CCCC1)Nc1nc(-c2ccco2)c(C(=O)C2CCOCC2)s1` [Compound 441, N-[4-(2-Furyl)-5-(tetrahydropyran-4-ylcarbonyl)thiazol-2-yl]-2-(1-pyrrolidinyl)acetamide] had a melting point of 115 to 117 °C.
As to `COC[C@H]1CCCN1CC(=O)Nc1nc(-c2ccco2)c(C(=O)C2CCOCC2)s1` [Compound 442, N-[4-(2-Furyl)-5-(tetrahydropyran-4-ylcarbonyl)thiazol-2-yl]-2-[(2R)-2-(methoxymethyl)pyrrolidin-1-yl]acetamide], the melting point lay within 103 to 104 °C.
In the case of `COC[C@@H]1CCCN1CC(=O)Nc1nc(-c2ccco2)c(C(=O)C2CCOCC2)s1` [Compound 443, N-[4-(2-Furyl)-5-(tetrahydropyran-4-ylcarbonyl)thiazol-2-yl]-2-[(2S)-2-(methoxymethyl)pyrrolidin-1-yl]acetamide] it was 102 to 103 °C.
In turn, `O=C(CN1CCCCC1)Nc1nc(-c2ccco2)c(C(=O)C2CCOCC2)s1` [Compound 447, N-[4-(2-Furyl)-5-(tetrahydropyran-4-ylcarbonyl)thiazol-2-yl]-2-piperidinoacetamide] displayed a melting point of 146 to 147 °C.
As for `O=C(CN1CCC(O)CC1)Nc1nc(-c2ccco2)c(C(=O)C2CCOCC2)s1` [Compound 448, N-[4-(2-Furyl)-5-(tetrahydropyran-4-ylcarbonyl)thiazol-2-yl]-2-(4-hydroxypiperidino)acetamide], the melting point fell in the range of 178 to 180 °C.
`COC1CCN(CC(=O)Nc2nc(-c3ccco3)c(C(=O)C3CCOCC3)s2)CC1` [Compound 450, N-[4-(2-Furyl)-5-(tetrahydropyran-4-ylcarbonyl)thiazol-2-yl]-2-(4-methoxypiperidino)acetamide] yielded a melting point of 109 to 111 °C.
Then `CC1(O)CCN(CC(=O)Nc2nc(-c3ccco3)c(C(=O)C3CCOCC3)s2)CC1` [Compound 451, N-[4-(2-Furyl)-5-(tetrahydropyran-4-ylcarbonyl)thiazol-2-yl]-2-(4-hydroxy-4-methylpiperidino)acetamide], with 151 to 153 °C; and `O=C(CN1CCC(N2CCCC2)CC1)Nc1nc(-c2ccco2)c(C(=O)C2CCOCC2)s1` [Compound 456, N-[4-(2-Furyl)-5-(tetrahydropyran-4-ylcarbonyl)thiazol-2-yl]-2-[4-(1-pyrrolidinyl)piperidino]acetamide], with 183 to 184 °C; and `O=C(CN1CCC(N2CCCCC2)CC1)Nc1nc(-c2ccco2)c(C(=O)C2CCOCC2)s1` [Compound 457, N-[4-(2-Furyl)-5-(tetrahydropyran-4-ylcarbonyl)thiazol-2-yl]-2-(4-piperidinopiperidino)acetamide], with 177 to 179 °C.
Then `O=C(CN1CCC(N2CCOCC2)CC1)Nc1nc(-c2ccco2)c(C(=O)C2CCOCC2)s1` [Compound 458, N-[4-(2-Furyl)-5-(tetrahydropyran-4-ylcarbonyl)thiazol-2-yl]-2-(4-morpholinopiperidino)acetamide], with 193 to 195 °C; and `O=C(CN1CCC2(CC1)OCCO2)Nc1nc(-c2ccco2)c(C(=O)C2CCOCC2)s1` [Compound 459, 2-(1,4-Dioxa-8-azaspiro[4.5]decan-8-yl)-N-[4-(2-furyl)-5-(tetrahydropyran-4-ylcarbonyl)thiazol-2-yl]acetamide], with 186 to 187 °C; and `CN1CCN(CC(=O)Nc2nc(-c3ccco3)c(C(=O)C3CCOCC3)s2)CC1` [Compound 467, N-[4-(2-Furyl)-5-(tetrahydropyran-4-ylcarbonyl)thiazol-2-yl]-2-(4-methylpiperazin-1-yl)acetamide], with 106 to 112 °C.
